This note sets out measurements from patent EP4699605A1, “USE OF NOVEL COMPOUND FOR TREATING INTRACTABLE DISEASES” (YJ Cerapeutics Inc., priority 2023, dated 2024).

Molecules are shown by their SMILES.

For series [1], the system named is nerve injury animal models (SCI, LSS, SNI). Nature of the series: Mechanical allodynia (von-Frey filaments, 50% paw withdrawal threshold) in nerve injury animal models. The series is classed as in vivo, Sprague-Dawley rats. The conditions noted are these: intraperitoneal 5 mg/kg; at 1 hour after administration. As for the experimental part: To be used as a central nerve injury animal model, a traumatic spinal cord injury (SCI) model was prepared (FIG. 1A). Specifically, 230 to 250 g of male adult Sprague-Dawley rats were anesthetized by intraperitoneal injection of chloral hydrate (500 mg/kg), and then the back and neck regions were shaved, and the spinal cord under the back and neck regions was exposed without damaging the dura mater, and a laminectomy was performed at T9 to T10 levels. To stabilize the spine, the spinous processes of T8 and T11 were fixed, and the spine was damaged by free-falling a 10 g weight from a height of 25 mm using an NYU impactor onto the back surface of the exposed spinal cord and then the rats were left in a temperature and humidity-controlled chamber overnight while covering the muscles and skin. After surgery, the rats were subcutaneously injected with a supplement solution (5 ml, lactated ringer) and injected with antibiotics (gentamicin, 5 mg/kg, intramuscular injection) once daily for 5 days. The body weight, remaining food, and the weight of water were confirmed and recorded for all animals, and the bladder was emptied twice daily by passive bladder massage until reflex micturition was established. At this time, a Sham group was a group that was subjected to only laminectomy without damage.
To be used as a peripheral nerve injury animal model, a lumbar spinal stenosis (LSS) model was prepared (FIG. 1B). Specifically, 260 to 280 g of adult male Sprague-Dawley rats were anesthetized with intraperitoneal injection of chloral hydrate (500 mg/kg), the back region was shaved, and then the spinal plate was exposed at L4 to S2 levels. After removing the ligamentous section between L4 and L5, a trapezoidal silicone block (1.00 mm long × 1.3 to 1.2 mm wide × 1.0 mm high) was inserted into the epidural space below the L5 and L6 spinal plates without damaging the dural sac. At this time, a Sham group was a group that was subjected to only posterior […] on the animal without inserting a silicone block.
To be used as a peripheral nerve injury animal model, a sciatic nerve injury (SNI) model was prepared (FIG. 1C). Specifically, 200 to 220 g of male adult Sprague-Dawley rats were anesthetized by intraperitoneal injection of chloral hydrate (500 mg/kg), and then three terminal branches (tibial, common peroneal, and sural nerves) of the right sciatic nerve were approached, and the tibia nerve and the peroneal nerve were tightly ligated with 4-0 silk, and neurectomy was performed at a distal 3 mm position of the ligation site. At this time, a Sham group was a group that exposed only the sciatic nerve without damage.
In order to confirm a neuropathic pain inhibitory effect of YJ102 (Chemical Formula 1), a compound of the present disclosure, in the three nerve injury animal models prepared in Example 1 above, rats having pain on week 3 (SNI model) or week 4 (SCI model and LSS model) after surgery were selected and administered orally (p.o.) at 10 mg/kg or 20 mg/kg of YJ102 dissolved in a solution of DMSO, methyl pyrrolidinone, and water (1 : 1.5 : 1), or intraperitoneally injected (i.p. injection) at 1, 2, or 5 mg/kg of YJ102. In a positive control group, gabapentin or pregabalin dissolved in saline was intraperitoneally injected at a concentration of 5 mg/kg, and in a Vehicle group, the same amount of a solution of DMSO, methyl pyrrolidinone, and water was administered. Thereafter, in order to measure mechanical allodynia, the rats were located at the bottom of a transparent plastic box (10 cm × 10 cm) on top of a wire mesh (3 mm × 3 mm) and subjected to an adaptation period for approximately 20 minutes. Von-Frey filaments were applied to the soles of both paws and used with stiff nylon von-Frey monofilament series ([…], Stoelting, WoodDale, IL, USA; equivalent in grams to 0.4, 0.6, 1.0, 2.0, 4.0, 6.0, 8.0 and 15.0) with logarithmic increases in tactile (mechanical) sensitivity. […]

A short description of series [2]: Observation of sedation as a side effect at high doses. The series is classed as in vivo, rats.

On to `NCC1(CC(=O)O)CCCCC1` [gabapentin, reference compound], for which the “analgesic effect (mechanical allodynia)” value in series [1] is recorded as “significant analgesic effect”. Besides, in series [2] (50 mg/kg), the “sedation as a side effect” value is “observed”.
Turning to `CC(C)C[C@H](CN)CC(=O)O` [pregabalin, reference compound], in series [1], the “analgesic effect (mechanical allodynia)” value is on record as “significant analgesic effect”. Moreover, the “sedation as a side effect” value in series [2] (20 mg/kg) is “observed”.
